Experimental data: the NIST ThermoML archive (doi:10.1016/j.jct.2013.08.010)

Test: mn = molality of the nth substance listed, in mol/kg
Conditions: 101 kPa, Liquid; for speed of sound: Sing-around technique in a fixed-path interferometer; for mass density: Vibrating tube method

NCC(=O)O [2-aminoacetic acid] + O
Conditions | mass density, 288.15 K [kg/m3] | mass density, 298.15 K [kg/m3] | mass density, 308.15 K [kg/m3] | mass density, 318.15 K [kg/m3] | speed of sound, 288.15 K [m/s] | speed of sound, 298.15 K [m/s] | speed of sound, 308.15 K [m/s] | speed of sound, 318.15 K [m/s]
m1 = 0.01207 | 999.51 | 997.439 | 994.412 | 990.513 | 1467.2 | 1497.7 | 1520 | 1537.2
m1 = 0.0523 | 1000.84 | 998.74 | – | 991.747 | 1470.1 | 1500.1 | 1522.9 | 1538.9
m1 = 0.1037 | 1002.52 | 1000.39 | 997.281 | 993.309 | 1472.3 | 1502.3 | 1524.7 | 1541.1
m1 = 0.2037 | 1005.77 | 1003.57 | 1000.37 | 996.317 | 1477.8 | 1507.2 | 1529.7 | 1545.8
m1 = 0.3068 | 1009.07 | 1006.8 | 1003.51 | – | 1483.4 | 1512.4 | 1534.6 | 1551.4
m1 = 0.4124 | 1012.4 | 1010.06 | 1006.68 | 1002.46 | 1488.7 | 1517.8 | 1539.7 | 1555.4
m1 = 0.5028 | 1015.22 | 1012.82 | 1009.36 | 1005.06 | 1494.5 | 1523 | 1543.8 | 1560.2
m1 = 0.6058 | 1018.38 | 1015.9 | 1012.35 | 1007.97 | 1499.2 | 1527.3 | 1548.7 | 1564.1
m1 = 0.6829 | 1020.71 | 1018.19 | 1014.55 | 1010.1 | 1503.4 | 1531.3 | 1552.5 | 1567.7
m1 = 0.82 | 1024.83 | 1022.23 | 1018.45 | 1013.89 | 1510.2 | 1537.7 | 1558.6 | 1573.5

C[C@H](N)C(=O)O [(S)-2-aminopropanoic acid] + O
Conditions | mass density, 288.15 K [kg/m3] | mass density, 298.15 K [kg/m3] | mass density, 308.15 K [kg/m3] | mass density, 318.15 K [kg/m3] | speed of sound, 288.15 K [m/s] | speed of sound, 298.15 K [m/s] | speed of sound, 308.15 K [m/s] | speed of sound, 318.15 K [m/s]
m1 = 0.00939 | 999.393 | 997.32 | 994.294 | 990.395 | 1467.6 | 1497.9 | 1520.8 | 1537
m1 = 0.04689 | 1000.52 | 998.405 | 995.339 | 991.404 | 1469.9 | 1499.8 | 1522.7 | 1539.2
m1 = 0.09896 | 1002.07 | 999.9 | 996.777 | 992.791 | 1472.8 | 1502.8 | 1525.5 | 1542
m1 = 0.2003 | 1005.04 | 1002.78 | 999.545 | 995.459 | 1480.3 | 1509.6 | 1531.8 | 1547.9
m1 = 0.2979 | 1007.86 | 1005.5 | 1002.16 | 997.981 | 1487.3 | 1515.9 | 1537.9 | 1553.2
m1 = 0.3997 | 1010.74 | 1008.28 | 1004.85 | 1000.56 | 1494.3 | 1522.7 | 1544 | 1558.7
m1 = 0.4941 | 1013.38 | 1010.81 | 1007.28 | 1002.91 | 1500.3 | 1528 | 1549 | 1564.1
m1 = 0.6099 | 1016.55 | 1013.87 | 1010.22 | 1005.75 | 1509.5 | 1536.7 | 1556.8 | 1571.4
m1 = 0.6973 | 1018.88 | 1016.12 | 1012.38 | 1007.84 | 1513.3 | 1540.4 | 1560.7 | 1574.7
m1 = 0.7978 | 1021.55 | 1018.68 | 1014.85 | 1010.19 | 1520 | 1546.2 | 1566 | 1580.9

CC(C)[C@H](N)C(=O)O [L-valine] + O
Conditions | mass density, 288.15 K [kg/m3] | mass density, 298.15 K [kg/m3] | mass density, 308.15 K [kg/m3] | mass density, 318.15 K [kg/m3] | speed of sound, 288.15 K [m/s] | speed of sound, 298.15 K [m/s] | speed of sound, 308.15 K [m/s] | speed of sound, 318.15 K [m/s]
m1 = 0.00555 | 999.264 | 997.195 | 994.174 | 990.28 | 1467.4 | 1497.5 | 1520.4 | 1537.1
m1 = 0.02398 | 999.773 | 997.685 | 994.647 | 990.74 | 1467.3 | 1497.4 | 1520.4 | 1537.4
m1 = 0.03504 | 1000.08 | 997.977 | 994.929 | 991.014 | 1469.7 | 1499.6 | 1522 | 1538.7
m1 = 0.05824 | 1000.71 | 998.588 | 995.518 | 991.588 | 1469.6 | 1499.7 | 1522.6 | 1539
m1 = 0.07873 | 1001.27 | 999.124 | 996.034 | 992.09 | 1472.8 | 1502.4 | 1525 | 1541.2
m1 = 0.09938 | 1001.83 | 999.658 | 996.551 | 992.593 | 1474.8 | 1504.4 | 1526.9 | 1542.7
m1 = 0.2068 | 1004.69 | 1002.41 | 999.213 | 995.181 | 1477 | 1506.2 | 1528.2 | 1544.4
m1 = 0.2992 | 1007.1 | 1004.73 | 1001.45 | 997.351 | 1488.4 | 1516.6 | 1537.8 | 1552.5
m1 = 0.4017 | 1009.7 | 1007.24 | 1003.87 | 999.709 | 1497.2 | 1524.8 | 1545.2 | 1560.4
